Measured values: patent US11766430B2, “Methods of using a phenoxypropylamine compound to treat pain” (Minerva Neurosciences, Inc., priority 2018, dated 2023)
Entries after “also recorded” stand apart in the source; their conditions may differ.

Columns and labels:
[1] = system: paclitaxel-induced peripheral neuropathic pain in rats; experiment: Prevention of paclitaxel-induced peripheral neuropathic pain, paw withdrawal threshold, chronic administration (Example 6); format: in vivo, Male Sprague Dawley rats; details: for PWT compared to vehicle (in words): days 10 and 14
Description: (§1) Male Sprague Dawley rats from Envigo were used in the study. Animals were received at approximately 250 g and housed 3 per cage upon arrival. All rats were examined, handled, and weighed prior to initiation of the study to assure adequate health and suitability. During the course of the study, 12/12 light/dark cycles was maintained. The room temperature was be maintained between 20 and 23° C. with a relative humidity maintained around 50%. Chow and water was provided ad libitum for the duration of the study. All testing was performed during the animal's light cycle phase.
(§2) Paclitaxel (2 mg/kg) was purchased from Biolyse Pharma and injected i.p. on four alternate days (day 1, 3, 5 and 7) for a total of 4 injections at a dose volume of 1 mL/kg.
(§3) Gabapentin (100 mg/kg) was dissolved in saline and administered orally at a dose volume of 1 mL/kg. For prevention study, gabapentin was administered on day 14, sixty minutes prior to test. For reversal study, gabapentin was administered once daily for 2 weeks. On test days it was administered 60 minutes prior to test.
Prevention study: MIN-117 (10 mg/kg) was formulated in 0.5% (w/v) hydroxypropylmethyl cellulose (HPMC) 8°-120 centipoises in water and was administered i.p once daily for 7 or 14 days at a dose volume of 1 mL/kg. On test days, MIN-117 was administered 2 hours prior to test.
Rats were administered paclitaxel (2 mg/kg) on four alternate days (days 1, 3, 5 and 7). Baseline and post treatment Paw Withdrawal Threshold (PWT) were evaluated using von Frey filaments (Semmes-Weinstein filaments, Stoelting, Wood Dale, Ill., USA) of varying stiffness (0.4, 0.7, 1.2, 2.0, 3.6, 5.5, 8.5, 10, 15, 26 g). Animals were placed on a perforated metallic platform and allowed to acclimate to their surroundings for a minimum of 15 minutes before each test session. Each filament was presented perpendicular to the plantar surface with sufficient force to cause slight buckling against the paw, and then held until a positive response is noted (paw sharply withdrawn). As described by Chaplan et al. 1994, once the threshold was crossed, the 2 responses straddling the threshold are retrospectively designated as the first 2 responses. Four additional responses were measured to stimuli varied sequentially up or down based on the animal's response. […] The parameter k is from the Appendix 1 in Chaplan and was determined by the pattern of the von Frey responses (e.g. OXOXOX where ‘O’ indicates no response and ‘X’ denotes a withdrawal). […]
(§4) PWT was measured according to the Schematics in FIG. 9 (prevention) and FIG. 10 (reversal study).
Data was analyzed by analysis of variance (ANOVA) followed by post-hoc comparisons where appropriate. […]

[2] = system: paclitaxel-induced peripheral neuropathic pain in rats; experiment: Reversal of paclitaxel-induced peripheral neuropathic pain, paw withdrawal threshold, chronic administration (Example 6); format: in vivo, Male Sprague Dawley rats; details: hydrochloride; for PWT compared to vehicle (in words): days 14, 21 and 28, 2 hours post dosing
Description: as §1, §2, §3
Reversal study: MIN-117 (1, 3 and 10 mg/kg) was formulated in 0.5% (w/v) hydroxypropylmethyl cellulose (HPMC) 8°-120 centipoises in water and administered i.p once daily for 2 weeks at a dose volume of 1 mL/kg. On test days, MIN-117 was administered 2 hours prior to test.
Rats were administered paclitaxel (2 mg/kg) on four alternate days (days 1, 3, 5 and 7). Baseline and post treatment Paw Withdrawal Threshold (PWT) were evaluated using von Frey filaments (Semmes-Weinstein filaments, Stoelting, Wood Dale, Ill., USA) of varying stiffness (0.4, 0.7, 1.2, 2.0, 3.6, 5.5, 8.5, 10, 15, 26 g). Animals were placed on a perforated metallic platform and allowed to acclimate to their surroundings for a minimum of 15 minutes before each test session. Each filament was presented perpendicular to the plantar surface with sufficient force to cause slight buckling against the paw, and then held until a positive response is noted (paw sharply withdrawn). As described by Chaplan et al. 1994, once the threshold was crossed, the 2 responses straddling the threshold are retrospectively designated as the first 2 responses. Four additional responses were measured to stimuli varied sequentially up or down based on the animal's response. The 6 responses in the immediate vicinity of the threshold were used to calculate the 50% g threshold: 50% g threshold=(10^[Xf+k*d])/10000 Xf is the final filament used (in log units). The parameter k is from the Appendix 1 in Chaplan and was determined by the pattern of the von Frey responses (e.g. OXOXOX where ‘O’ indicates no response and ‘X’ denotes a withdrawal). The parameter d is the difference between stimuli which Chaplan used a constant d=0.224. To accommodate for the use of the 10 g and 26 g filaments, the exact difference between stimuli were used.
as §4
Data was analyzed by analysis of variance (ANOVA) followed by post-hoc comparisons where appropriate. An effect will be considered significant if p<0.05. Data was represented as the mean and standard error to the mean (s.e.m). Statistical outliers that fell above or below 2 standard deviations of the mean were identified but not removed from the final analysis.

SMILES: Cc1nnc(-c2cc3c(OC[C@@H](O)CN4CCC(c5ccc(Cl)c(Cl)c5)CC4)cccc3o2)o1.Cl [MIN-117, (2S)-1-(4-(3,4-dichlorophenyl)piperidin-1-yl)-3-((2-(5-methyl-1,3,4-oxadiazol-2-yl)benzofuran-4-yl)oxy)propan-2-ol hydrochloride]
- PWT after cessation of treatment (in words) ([1]; 10 mg/kg i.p. for 7 or 14 days, day 21, one week or two weeks after cessation of treatment, hydrochloride): no analgesic effects; also recorded: returned to vehicle levels
- PWT compared to vehicle (in words) ([1]; 10 mg/kg i.p. once daily for one week (7 days) starting one day prior to paclitaxel): significantly higher PWT
- PWT compared to vehicle (in words) ([1]; 10 mg/kg i.p. once daily for two weeks (14 days) starting one day prior to paclitaxel, 2 hours post dosing): significantly higher PWT
- PWT compared to vehicle (in words) ([2]; 1 mg/kg i.p. once daily for 2 weeks): significant increase in PWT; also recorded: significantly higher PWT
- PWT compared to vehicle (in words) ([2]; 3 mg/kg i.p. once daily for 2 weeks): significant increase in PWT; also recorded: significantly higher PWT
- PWT compared to vehicle (in words) ([2]; 10 mg/kg i.p. once daily for 2 weeks): significant increase in PWT; also recorded: significantly higher PWT
- PWT after cessation of treatment (in words) ([2]; 1, 3 and 10 mg/kg i.p., day 35, one week after cessation of treatment): no analgesic effects; also recorded: returned to vehicle levels
